From ChEMBL document CHEMBL2169823, “cis-4-amino-L-proline residue as a scaffold for the synthesis of cyclic and linear endomorphin-2 analogues: part 2” (J Med Chem, 2012) come the findings set out here.

The target in test [1] is Delta-type opioid receptor (Mus musculus, UniProt P32300). Nature of the test: Agonist activity at delta opioid receptor in ICR mouse vas deferens assessed as inhibition of electrically-induced smooth muscle contraction after 3 mins. The test is classed as functional, tissue-based.
Delta-type opioid receptor (Mus musculus, UniProt P32300), sequence (P32300 whole entry): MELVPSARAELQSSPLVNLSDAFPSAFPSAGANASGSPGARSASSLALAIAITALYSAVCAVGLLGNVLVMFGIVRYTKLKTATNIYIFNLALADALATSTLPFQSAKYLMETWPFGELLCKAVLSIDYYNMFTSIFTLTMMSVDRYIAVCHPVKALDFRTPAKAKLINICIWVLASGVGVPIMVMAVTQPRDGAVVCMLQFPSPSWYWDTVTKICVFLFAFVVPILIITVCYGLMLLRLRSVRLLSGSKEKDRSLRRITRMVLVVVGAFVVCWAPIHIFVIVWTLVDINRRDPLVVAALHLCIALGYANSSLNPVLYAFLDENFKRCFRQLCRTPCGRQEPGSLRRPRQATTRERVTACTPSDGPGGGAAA
Test [2] addresses Mu-type opioid receptor (Homo sapiens, UniProt P35372). Put plainly: Displacement of [3H]DAMGO from mu opioid receptor transfected in […] HN9.10 cells after 3 hrs by liquid scintillation counter. The test is classed as cell-based.
In test [3] the target is Kappa-type opioid receptor (Homo sapiens, UniProt P41145). Put plainly: Displacement of [3H]U69593 from human kappa opioid receptor expressed in CHO cells after 60 mins by liquid scintillation counter. Type of test: cell-based. For orientation: Loss of bound radioactivity is the signal in a displacement assay; it reports binding, not function.
Kappa-type opioid receptor, sequence (P41145 whole entry): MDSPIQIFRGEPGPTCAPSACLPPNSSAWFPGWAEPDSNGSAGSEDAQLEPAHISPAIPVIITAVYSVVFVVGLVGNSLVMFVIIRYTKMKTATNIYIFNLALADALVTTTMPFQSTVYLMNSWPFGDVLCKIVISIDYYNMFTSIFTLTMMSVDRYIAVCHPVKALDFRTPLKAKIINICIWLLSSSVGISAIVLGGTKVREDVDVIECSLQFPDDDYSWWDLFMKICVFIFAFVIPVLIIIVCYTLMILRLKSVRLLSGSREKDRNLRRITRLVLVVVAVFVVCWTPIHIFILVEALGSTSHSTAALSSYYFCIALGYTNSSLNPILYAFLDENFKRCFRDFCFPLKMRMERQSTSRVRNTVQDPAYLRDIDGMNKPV
Test [4] has as its target Delta-type opioid receptor (Homo sapiens, UniProt P41143). Put plainly: Displacement of [3H]DPDPE from delta opioid receptor transfected in […] HN9.10 cells after 3 hrs by liquid scintillation counter. Type of test: cell-based.
Test [5] deals with Mu-type opioid receptor (Cavia porcellus, UniProt P97266). Put plainly: Agonist activity at mu opioid receptor in Hartley guinea pig ileum longitudinal muscle myenteric plexus assessed as inhibition of electrically-induced smooth muscle contraction after 3 mins. The test is classed as functional, tissue-based.
Mu-type opioid receptor (Cavia porcellus, UniProt P97266), sequence (P97266 whole entry): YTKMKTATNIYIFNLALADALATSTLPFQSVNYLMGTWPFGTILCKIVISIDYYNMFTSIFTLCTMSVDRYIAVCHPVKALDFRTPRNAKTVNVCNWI
Test [6] addresses Mu-type opioid receptor (Cavia porcellus) (UniProt P97266). Nature of the test: Agonist activity at mu opioid receptor in Hartley guinea pig ileum longitudinal muscle myenteric plexus assessed as inhibition of electrically-induced smooth muscle contraction at 1 uM after 3 mins. The test is classed as functional, tissue-based.
In test [7] the target is Delta-type opioid receptor (Mus musculus) (UniProt P32300). Put plainly: Agonist activity at delta opioid receptor in ICR mouse vas deferens assessed as inhibition of electrically-induced smooth muscle contraction at 1 uM after 3 mins. Type of test: functional, tissue-based.
Delta-type opioid receptor (Mus musculus), sequence (P32300 whole entry): as the sequence (P32300 whole entry) above

Mu-type opioid receptor (Cavia porcellus), sequence (P97266 whole entry): as the sequence (P97266 whole entry) above
Delta-type opioid receptor (Homo sapiens, UniProt P41143), sequence (P41143 whole entry): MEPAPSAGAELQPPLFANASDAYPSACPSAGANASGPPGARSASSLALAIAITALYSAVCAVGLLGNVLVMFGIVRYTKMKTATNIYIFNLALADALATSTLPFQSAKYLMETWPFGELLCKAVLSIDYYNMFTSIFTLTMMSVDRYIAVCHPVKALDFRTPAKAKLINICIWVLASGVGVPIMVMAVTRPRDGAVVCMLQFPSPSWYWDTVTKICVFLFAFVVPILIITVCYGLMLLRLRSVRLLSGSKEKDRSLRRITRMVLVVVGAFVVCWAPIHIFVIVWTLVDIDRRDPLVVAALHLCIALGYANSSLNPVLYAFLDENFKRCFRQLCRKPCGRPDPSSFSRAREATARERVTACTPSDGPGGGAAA
Mu-type opioid receptor (Homo sapiens, UniProt P35372), sequence (P35372 whole entry): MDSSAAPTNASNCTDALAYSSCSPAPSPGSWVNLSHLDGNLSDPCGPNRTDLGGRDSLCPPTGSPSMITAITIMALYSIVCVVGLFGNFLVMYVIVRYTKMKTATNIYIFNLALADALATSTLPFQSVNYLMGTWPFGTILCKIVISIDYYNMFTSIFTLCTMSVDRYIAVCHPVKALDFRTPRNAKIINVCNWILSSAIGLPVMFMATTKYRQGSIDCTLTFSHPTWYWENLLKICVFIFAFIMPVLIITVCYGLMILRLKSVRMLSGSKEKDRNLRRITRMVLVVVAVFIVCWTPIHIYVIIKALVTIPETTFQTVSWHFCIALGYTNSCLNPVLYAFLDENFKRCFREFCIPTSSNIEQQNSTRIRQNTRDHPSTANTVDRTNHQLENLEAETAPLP

Usually IC50 stands for the midpoint of a concentration-inhibition curve. By Ki is commonly meant the dissociation constant of the complex between target and ligand, obtained from inhibition or displacement. With `N[C@@H](Cc1ccc(O)cc1)C(=O)N1C[C@@H]2C[C@H]1C(=O)N[C@H](Cc1ccccc1)C(=O)N[C@@H](Cc1ccccc1)C(=O)N2`, the IC50 in test [1] was 950 nM; at Mu-type opioid receptor [5], 330 nM. The inhibition constant Ki was 38 nM at Mu-type opioid receptor [2], above 10000 nM in test [3] (read-out: Ki) and 860 nM in test [4] (read-out: Ki).

The inhibition is the drop in the measured response relative to a control, in per cent. For the molecule `Br.N[C@H]1C[C@@H](C(=O)N[C@H](Cc2ccccc2)C(=O)N[C@@H](Cc2ccccc2)C(=O)O)N(C(=O)[C@@H](N)Cc2ccc(O)cc2)C1`, the results for the inhibition constant (Ki) (on Mu-type opioid receptor [2]; in test [3] (cho); in test [4]) were 1010 nM, “Not Active” and “Not Active”, respectively. The inhibition in test [6] was determined as 11%; in test [7], 3.6%.

On to `N[C@@H](Cc1ccc(O)cc1)C(=O)N1C[C@@H]2C[C@H]1C(=O)N[C@H](Cc1ccccc1)C(=O)N[C@H](Cc1ccccc1)C(=O)N2`, for which the IC50 in test [1] was 1400 nM; on Mu-type opioid receptor [5], 480 nM. For the same molecule, the Ki on Mu-type opioid receptor [2] is 63 nM; in test [3] (read-out: Ki), above 10000 nM; in test [4] (read-out: Ki), 1010 nM.

In the case of `Br.NC(=O)[C@H](Cc1ccccc1)NC(=O)[C@@H](Cc1ccccc1)NC(=O)[C@@H]1C[C@H](N)CN1C(=O)[C@@H](N)Cc1ccc(O)cc1`, the Ki at Mu-type opioid receptor [2] was 760 nM; in test [3] (cho), “Not Active”; in test [4], “Not Active”. For the same molecule, the figures for the inhibition in test [6] and in test [7] were 12% and 14%, respectively.

`Br.NC(=O)[C@@H](Cc1ccccc1)NC(=O)[C@H](Cc1ccccc1)NC(=O)[C@@H]1C[C@H](N)CN1C(=O)[C@@H](N)Cc1ccc(O)cc1`: the Ki is above 10000 nM on Mu-type opioid receptor [2], “Not Active” in test [3] (cho) and “Not Active” in test [4]. Moreover, the inhibition in test [7] was found to be 5.4%. Further, the IC50 on Mu-type opioid receptor [5] was determined as 2300 nM.

Turning to `Br.NC(=O)[C@@H](Cc1ccccc1)NC(=O)[C@@H](Cc1ccccc1)NC(=O)[C@@H]1C[C@H](N)CN1C(=O)[C@@H](N)Cc1ccc(O)cc1`, the Ki on Mu-type opioid receptor [2] was 3700 nM; in test [3] (cho) it was “Not Active”; in test [4] it was “Not Active”. Further, the figures for the inhibition in test [6] and in test [7] were 0.9% and 0%, respectively.

With `Br.N[C@H]1C[C@@H](C(=O)N[C@@H](Cc2ccccc2)C(=O)N[C@H](Cc2ccccc2)C(=O)O)N(C(=O)[C@@H](N)Cc2ccc(O)cc2)C1`, the Ki at Mu-type opioid receptor [2] is 760 nM; in test [3] (cho) it was “Not Active”; in test [4], “Not Active”. Also, the inhibition in test [6] was found to be 3.2%; in test [7], 1.3%.

On to `Br.N[C@H]1C[C@@H](C(=O)N[C@H](Cc2ccccc2)C(=O)N[C@H](Cc2ccccc2)C(=O)O)N(C(=O)[C@@H](N)Cc2ccc(O)cc2)C1`, for which the Ki on Mu-type opioid receptor [2] is above 10000 nM; in test [3] (cho), “Not Active”; in test [4] (read-out: Ki) it was above 10000 nM. Moreover, the inhibition amounted to 2% in test [6] and 3.6% in test [7].
